Laboratory results reported in ChEMBL document CHEMBL2046395, “Discovery of nitroheterocycles active against African trypanosomes. In vitro screening and preliminary SAR studies” (Bioorg Med Chem Lett, 2012).
pIC50: −log10 of the molar value.

How the values were obtained:
[1] = system: Trypanosoma brucei rhodesiense; assay: Antitrypanosomal activity against Trypanosoma brucei rhodesiense STIB900 by Alamar blue growth inhibition assay; type: functional, organism-based
[2] = Selectivity index, ratio of IC50 for rat L6 cells to IC50 for Trypanosoma brucei rhodesiense STIB900; type: toxicity, cell-based; details: read-out: Ratio IC50
[3] = system: L6; assay: Cytotoxicity against rat L6 cells; type: cell-based

Row | SMILES | pIC50 [1] | selectivity ratio [2] | pIC50 [3]
1 | O=C(NN1Cc2ccccc2C1)c1ccccc1 | < 3.38 | 0.2 | 4.16
2 | O=C(NN1Cc2ccccc2C1)c1ccccc1F | 3.78 | 1.5 | 3.62
3 | O=C(NN1Cc2ccccc2C1)c1cc([N+](=O)[O-])ccc1F | 4.40 | > 8.3 | < 3.48
4 | O=C(NN1Cc2ccccc2C1)c1cccnc1Cl | < 3.44 | – | < 3.44
5 | O=C(Cc1cc([N+](=O)[O-])ccc1F)NN1CCCCC1 | 3.49 | > 1.1 | < 3.45
6 | CN(C)NC(=O)c1cc([N+](=O)[O-])ccc1Cl | < 3.39 | – | < 3.39
7 | O=C(NN1CCCCC1)c1cc([N+](=O)[O-])ccc1Cl | 3.67 | > 1.7 | < 3.45
8 | O=C(NN1CCc2ccccc2C1)c1cc([N+](=O)[O-])ccc1F | 4.64 | > 13.7 | < 3.50
9 | O=C(NN1CCc2ccccc2C1)c1cc([N+](=O)[O-])ccc1Cl | 4.26 | 0.4 | 4.66
10 | O=C(NN(Cc1ccccc1)Cc1ccccc1)c1ccccc1Cl | 4.25 | 0.9 | 4.29
11 | [O-]C1=N[N+]2(CCCCC2)c2ccccc21 | < 3.31 | – | < 3.31
12 | O=[N+]([O-])c1ccc2c(c1)C([O-])=N[N+]21CCCCCC1 | 3.72 | > 2 | < 3.42
13 | Cn1[nH]c(=O)c2cc([N+](=O)[O-])ccc21 | 3.51 | > 1.7 | < 3.29
14 | O=[N+]([O-])c1ccc2c(c1)CC([O-])=N[N+]21CCCCC1 | 3.70 | 1.6 | 3.49
15 | C[n+]1cccc2c(=O)n3n(c21)Cc1ccccc1C3 | 3.62 | > 1.1 | < 3.58
16 | O=C1C[N+]2(CCCCC2)c2ccc([N+](=O)[O-])cc21 | 3.67 | 0.4 | 4.07
17 | O=C1CN(CCCCCN2CCCCC2)c2ccc([N+](=O)[O-])cc2N1 | 4.67 | 4.6 | 4.01
18 | CN1C(=O)CN(CCCCCN2CCCCC2)c2ccc([N+](=O)[O-])cc21 | 4.84 | 3.6 | 4.28
19 | CN1C(=O)C2CCCCN2c2ccc([N+](=O)[O-])cc21 (stereo not drawn) | 3.81 | 0.7 | 3.99
20 | CON1C(=O)C2CCCCN2c2ccc([N+](=O)[O-])cc21 (stereo not drawn) | 3.92 | 0.6 | 4.17
21 | CSc1ccc(OCc2ncc([N+](=O)[O-])n2C)cc1 [FEXINIDAZOLE] | 5.77 | > 322 | –
22 | O=C(NN(Cc1ccccc1)Cc1ccccc1)c1ccccc1 [N',N'-DIBENZYLBENZOHYDRAZIDE] | < 3.50 | – | < 3.50
23 | COc1cc([C@@H]2c3cc4c(cc3[C@H](O)[C@H]3COC(=O)[C@H]23)OCO4)cc(OC)c1OC [PODOFILOX] | – | – | 7.72

Second part, led by results:

Row | pIC50 [1] | SMILES | selectivity ratio [2] | pIC50 [3]
24 | 4.06 | O=c1c2cc([N+](=O)[O-])ccc2n2n1Cc1ccccc1CC2 | > 4 | < 3.47
25 | 4.31 | O=c1c2cc([N+](=O)[O-])ccc2n(Cc2ccccc2)n1Cc1ccccc1 | 0.8 | 4.43
26 | 3.60 | O=c1c2cc([N+](=O)[O-])ccc2[nH]n1Cc1ccccn1 | 1.1 | 3.54
27 | 4.18 | O=c1c2cc([N+](=O)[O-])ccc2n2n1Cc1ccccc1C2 | 3.3 | 3.65
28 | 4.13 | O=[N+]([O-])c1ccc2[nH]nc(OCc3ccccc3Cl)c2c1 | 0.4 | 4.52
29 | 3.72 | COc1nn(Cc2ccccc2F)c2ccc([N+](=O)[O-])cc12 | > 1.7 | < 3.48
30 | 3.77 | O=c1[nH]n(Cc2ccccc2F)c2ccc([N+](=O)[O-])cc12 | 1.3 | 3.68
31 | 3.79 | O=c1c2cc([N+](=O)[O-])ccc2[nH]n1Cc1ccccc1 | 1.4 | 3.63
32 | 3.79 | Cn1c(=O)c2cc([N+](=O)[O-])ccc2n1Cc1ccccc1 | 1 | 3.78
33 | 5.09 | Cn1c2ccc([N+](=O)[O-])cc2c(=O)n1Cc1ccccc1 | 5.3 | 4.36
34 | 4.70 | CCCn1c2ccc([N+](=O)[O-])cc2c(=O)n1Cc1ccccc1 | 3.9 | 4.11
35 | 4.01 | O=C(NN1Cc2ccccc2C1)c1cc([N+](=O)[O-])ccc1Cl | 0.2 | 4.70
36 | 3.75 | O=C(Cc1cc([N+](=O)[O-])ccc1F)NN1Cc2ccccc2C1 | 0.9 | 3.77
37 | 5.15 | O=C(NCc1cc([N+](=O)[O-])ccc1N1CCc2ccccc2C1)NCc1cc([N+](=O)[O-])ccc1N1CCc2ccccc2C1 | > 23.6 | < 3.77
38 | 3.92 | COc1nn(Cc2ccccc2Cn2nc(OC)c3cc([N+](=O)[O-])ccc32)c2ccc([N+](=O)[O-])cc12 | > 1.7 | < 3.69
39 | 4.09 | O=C(NN1Cc2ccccc2CN1)c1cc([N+](=O)[O-])ccc1Cl | 2.2 | 3.75

Row | pIC50 [1] | SMILES | selectivity ratio [2] | pIC50 [3]
40 | 4.42 | O=C(NN(Cc1ccccc1)Cc1ccccc1)c1cc([N+](=O)[O-])ccc1Cl | 1.1 | 4.38
41 | 4.77 | O=C(NN(Cc1ccccc1)Cc1ccccc1)c1cc([N+](=O)[O-])ccc1F | 1.1 | 4.71
42 | 5.13 | O=C(NN(c1ccccc1)c1ccccc1)c1cc([N+](=O)[O-])ccc1Cl | 1.8 | 4.88
43 | 5.25 | O=C(NN(c1ccccc1)c1ccccc1)c1cc([N+](=O)[O-])ccc1F | 0.6 | 5.49
44 | 4.85 | CCOc1ccc([N+](=O)[O-])cc1C(=O)NN(c1ccccc1)c1ccccc1 | 13 | 3.73
45 | 3.96 | O=c1[nH]n(-c2ccccc2)c2ccc([N+](=O)[O-])cc12 | 1.4 | 3.80
46 | 4.97 | CN(C)CCOc1nn(Cc2ccccc2)c2ccc([N+](=O)[O-])cc12 | 5.3 | 4.24
47 | 5.28 | CN(C)CCCOc1nn(Cc2ccccc2F)c2ccc([N+](=O)[O-])cc12 | 6.1 | 4.49
48 | 4.31 | CCCCn1c2ccc([N+](=O)[O-])cc2c(=O)n1Cc1ccccc1 | 1 | 4.33
49 | 3.86 | Cn1c2ccc([N+](=O)[O-])cc2c(=O)n1-c1ccccc1 | 0.5 | 4.18
50 | 4.20 | CN1C(=O)C2Cc3ccccc3CCN2c2ccc([N+](=O)[O-])cc21 (stereo not drawn) | 0.2 | 4.82
51 | 3.72 | CN1C(=O)C2=Cc3ccccc3CCN2c2ccc([N+](=O)[O-])cc21 | > 1.6 | < 3.51
52 | 4.21 | CN1C(=O)C2Cc3ccccc3CN2c2ccc([N+](=O)[O-])cc21 (stereo not drawn) | 0.3 | 4.73
53 | 4.09 | O=[N+]([O-])c1ccc2c(c1)c(OCc1ccccc1)nn2Cc1ccccc1-c1ccccc1Cn1nc(OCc2ccccc2)c2cc([N+](=O)[O-])ccc21 | > 1.7 | < 3.86
54 | 4.24 | COc1nn(Cc2cccc(Cn3nc(OC)c4cc([N+](=O)[O-])ccc43)n2)c2ccc([N+](=O)[O-])cc12 | 2.6 | 3.82
55 | 4.00 | COc1nn(Cc2ccccc2Cn2nc(OC)c3ccccc32)c2ccccc12 | 0.4 | 4.35
